Test results reported in publication PMC7064771, “Repurposed Drugs That Block the Gonococcus-Complement Receptor 3 Interaction Can Prevent and Cure Gonococcal Infection of Primary Human Cervical Epithelial Cells” (mBio, 2020).
Entries after “also recorded” stand apart in the source; their conditions may differ.

Experiments:
human rI-domain = biological target: T1, human rI-domain (Homo sapiens, UniProt P11215); assay: Competitive SPR peptide library screen with galactobiose, rI-domain; format: binding; conditions: peptide-galactobiose molar ratio 25:1
T1 construct: Recombinant human and mouse I-domain proteins were made and purified as previously described; made in house
Description: (§1) The human I-domain sequence (NP_000623.2, amino acids Gly127 to Ala325 of CD11b) was used to generate a peptide library (Mimotopes; Mulgrave, VIC, Australia). Each peptide comprised 15 amino acids, with a 5-amino-acid sliding window, to give a 10-amino-acid overlap down the sequence, for a total of 40 peptides (see Table S1 in the supplemental material). Competitive SPR (Biacore T200 system; GE Healthcare Life Sciences) was used to screen the blocking potential of the peptide library. To this end, 100 μg/ml of each peptide was mixed with […] (2 μM) α1-3 galactobiose and flowed over immobilized human rI-domain and rCR3 on a Series S CM5 chip. Flow cell 1 was a blank immobilization/reference cell. Blocking peptides were defined as those peptides in which the peptide plus glycan response was less than those for the peptide and glycan alone. SPR sensorgrams were analyzed as noted above.

[1] = tested on: N. gonorrhoeae adherence to CHO-CR3 cells; assay: Fluorometric adherence assay, CHO-CR3 cells; format: cell-based, Chinese hamster
Description: (§2) Fluorometric adherence assays were performed essentially as described previously ([36]). In brief, N. gonorrhoeae MS11 gfp was used to challenge (1 h) Pex or CHO cells simultaneously with peptide or drug competitor. Infected (devoid of peptide or drug) and uninfected (with peptide, drug, or dimethyl sulfoxide [DMSO] vehicle) control cell assays were treated in parallel with competitive peptide/drug inhibition assays. Fluorescence (485 nm excitation, 528 nm emission) intensity, corresponding to bacterial adherence, was recorded using a Synergy HT multimode microplate reader (BioTek Instruments, Winooski, VT, USA). Blank wells, devoid of Pex or CHO cells, were inoculated with bacteria and served as a control for nonspecific binding. Each assay was performed in triplicates on 3 separate occasions. Peptides used are described in Table S1. A nonparametric analysis of variance (ANOVA) was used to determine the statistical significance of the calculated mean of bacterial adherence.

rCR3 = biological target: T2, rCR3 (Homo sapiens, UniProt P11215); assay: Competitive SPR peptide library screen with galactobiose, rCR3; format: binding; conditions: peptide-galactobiose molar ratio 25:1
T2 construct: purchased R&D Systems
Description: as §1

[2] = tested on: N. gonorrhoeae adherence to Pex cells; assay: Fluorometric adherence assay, Pex cells; format: cell-based, human
Description: as §2

[3] = 1-h infection with GFP-expressing N. gonorrhoeae, competitor added simultaneously

## H-RIHFTFKEFQNNPNP-OH [G2]
Human rI-domain
  Blocking of galactobiose binding to rI-domain: able to block
[1]; 100 μM peptide, P ≥ 0.67
  Gonococcal adherence to CHO-CR3 cells, difference from uninfected cells: not significantly
[1]; [3]
  Gonococcal adherence to CHO-CR3 cells (fluorescence): decreased; also recorded: dose-dependent reduction
rCR3
  Blocking of galactobiose binding to rCR3: able to block
[2]; 100 μM peptide, P ≥ 0.45
  Gonococcal adherence to Pex cells, difference from uninfected cells: not significantly
[2]; [3]
  Gonococcal adherence to Pex cells (fluorescence): decreased; also recorded: dose-dependent reduction
